Assay results taken from patent US9296760B2, “Antibacterial compounds” (JANSSEN SCIENCES IRELAND UC, priority 2012, dated 2016).
Values after ≈ are worked out from the molar mass of the structure shown.

Experiments:
[1] = Cytotoxicity MTT assay; format: cell-based, Human; conditions: human, HelaM cells, read-out: HELAM (222.125) CC50
Procedure: Cytotoxicity of the compounds was evaluated using the MTT assay. Human HelaM cells grown in 96-well plates were exposed to serial dilutions of the tested compounds (final volume of 0.2 ml) and incubated for 72 hours at 37° C. and 5% CO2 Inhibitors are typically varied over the range of 25 to 0.8 μM. The final DMSO concentration in the assay is 0.5%. MTT (3-(4,5-Dimethylthiazol-2-yl)-2,5-diphenyltetrazolium bromide, a tetrazole) was added and reduced to purple formazan only in living cells. Solubilization of the formazan crystals was achieved by adding 100 μl 2-propanol. Cell viability was determined by measuring the absorbance of the reduced formazan, giving a purple color, at 540 nm and 690 nm. The absorbance measured at 690 nm was automatically subtracted from the absorbance at 540 nm, to eliminate the effects of non-specific absorption. The percent cytotoxicity achieved by the compounds was calculated according to standard methods. Cytotoxicity is reported as CC50, the concentration that causes a 50% reduction in cell viability.
The results are depicted in the table(s) below (HELAM).

[2] = tested on: S. aureus; experiment: Antibacterial susceptibility testing, IC90 determination with 10% human serum; format: cell-based, Staphylococcus aureus; conditions: Staphylococcus aureus, S. aureus with human serum at final concentration of 10%; read-out: STA + 10% HS (361.169) IC90
Procedure: (§1) Antibacterial Susceptibility Testing: IC90 Determination MIC assays were performed by the broth microdilution method in a 96-well format (flat-bottom microtitre plates) with a final volume of 0.1 ml Mueller Hinton broth containing two-fold serial dilutions of compounds and inoculated with 5×10^5 CFU/ml of bacteria (standard inoculum size according to CLSI guidelines). Inhibitors are typically varied over the range of 63 to 0.49 μM. The final DMSO concentration in the assay was 1.25% (maximum tolerable DMSO concentration=6%). In the assays where the effect of human serum on the activity of the compounds against S. aureus was tested, human serum was added at a final concentration of 10%. The plates were incubated at 35° C. for 16-20 hours. At the end of incubation the bacterial growth was quantified fluorometrically. For this, resazurin was added to all wells and the plates were re-incubated. The incubation time is dependent on the type of bacteria. A change in color from blue to pink indicated the growth of bacteria. The fluorescence was read in computer-controlled fluorometer (Fluoroskan Ascent FL, Labsystems) at an excitation wavelength 540 nm and an emission wavelength of 590 nm. The % growth inhibition achieved by the compounds was calculated according to standard methods. The IC90 (expressed in μg/ml) was defined as the 90% inhibitory concentration for bacterial growth. A panel of reference compounds were simultaneously tested for QC approval. The results are depicted in the table(s) below (STA+10% HS).

[3] = biological target: T1, S. aureus ATCC 29213 FabI (Staphylococcus aureus, UniProt Q6GI75); experiment: Staphylococcus aureus FabI enzyme inhibition assay; format: biochemical; conditions: NADH consumption, 30 minutes, read-out: FabI (300.235) IC50 (converted)
T1 sequence (Q6GI75 1-256): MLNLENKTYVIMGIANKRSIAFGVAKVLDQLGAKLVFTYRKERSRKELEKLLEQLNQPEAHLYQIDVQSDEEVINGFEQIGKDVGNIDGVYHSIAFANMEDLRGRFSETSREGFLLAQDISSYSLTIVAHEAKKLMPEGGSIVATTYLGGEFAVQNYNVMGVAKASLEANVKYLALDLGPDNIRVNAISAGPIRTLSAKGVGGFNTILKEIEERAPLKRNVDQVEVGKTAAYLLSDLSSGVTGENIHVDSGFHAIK
Procedure: Y.1 FabI Enzyme Inhibition: Staphylococcus aureus FabI Enzyme Inhibition Assay
FabI enzyme inhibition assays were carried out in half-area, 384-well microtitre plates. […] The reaction mixtures were incubated for 30 minutes at room temperature and the reaction was stopped by adding 200 mM Tris buffer (pH 9.0) to create a pH-shift. The consumption of NADH was monitored by measuring the change in absorbance at […]. By comparing sample readings to those of negative (absence of compound) and positive (absence of enzyme) controls, the percent inhibition of enzymatic activity of the compounds was determined A best-fit curve is fitted by a minimum of squares method. From this an IC50-value (expressed in μg/ml), resulting in 50% inhibition of enzymatic activity, was obtained.

[4] = tested on: Staphylococcus aureus ATCC 29213; experiment: Antibacterial susceptibility testing, IC90 determination (broth microdilution, resazurin); format: cell-based; conditions: Staphylococcus aureus, ATCC29213, S. aureus ATCC 29213; 90% inhibitory concentration for bacterial growth; read-out: STA (361.159) IC90
Procedure: Y.2 In Vitro Method for Testing Compounds for Antibacterial Activity Against Various Bacterial Strains
Preparation of Bacterial Suspensions for Susceptibility Testing
The following bacteria were used: Staphylococcus aureus ATCC 29213, methicillin-resistant Staphylococcus aureus (MRSA) ATCC 700788 and Escherichia coli ATCC 35218. The bacteria used in this study were grown overnight in flasks containing 100 ml Mueller-Hinton broth (Difco cat. nr. 0757-17) in sterile de-ionized water, with shaking, at 37° C. Stocks were store at −70° C. until use.
Bacteria were incubated on a tryptic soy agar plate containing 5% sheep blood (Becton Dickinson cat. nr. 254053) for 18-24 hours at 35° C. in aerobic conditions (first passage). For the second passage, fresh Mueller-Hinton broth is inoculated with 5-10 colonies and grown overnight at 35° C. until turbidity (reaching log-phase) in aerobic conditions is reached. The bacterial suspension is then adjusted to 0.5 McFarland density and further diluted 1:100 in Mueller Hinton broth medium. This is used as inoculum.
The result(s) are depicted the table below (for STA ATCC 29213).
Antibacterial Susceptibility Testing: IC90 Determination
as §1, with “MIC” for “Antibacterial Susceptibility Testing: IC90 Determination MIC”, “approval.” for “approval. The results are depicted in the table(s) below (STA+10% HS).”

| melting point [°C] | IC90 [2] [µg/mL] | IC50 [3] [µM] | IC90 [4] [µg/mL] | Compound | CC50 at 72 h [1] [µg/mL] |
| --- | --- | --- | --- | --- | --- |
| 188 | 1.9 | 0.609 | 1.3 (≈ 3.6 µM) | CC(=O)Nc1ccc(/C=C/C(=O)N2CC=C(c3ccccc3)CCC2)cn1 [compound 12] | > 9.08 |
| 98 | 3.08 | 1.25 | 1.41 (≈ 3.32 µM) | O=C(Nc1ccc(/C=C/C(=O)N2CCC=C(c3ccccc3)CC2)cn1)c1ccncc1 [compound 13] | 4.29 (≈ 10.1 µM) |
| 150 | 24.1 | 2.25 | 1.45 (≈ 3.67 µM) | O=C(/C=C/c1ccc(Nc2ccccc2)nc1)N1CCC=C(c2ccccc2)CC1 [compound 14] | 6.27 (≈ 15.9 µM) |
| 169.37 | 6.71 | 1.54 | 3.29 (≈ 7.68 µM) | Cc1cc(C(=O)Nc2ccc(/C=C/C(=O)N3CCC=C(c4ccccc4)CC3)cn2)no1 [compound 16] | 7.89 (≈ 18.4 µM) |
| 134 | 8.56 | 2.41 | 4.29 (≈ 10 µM) | Cn1cnc(C(=O)Nc2ccc(/C=C/C(=O)N3CCC=C(c4ccccc4)CC3)cn2)c1 [compound 17] | 13.9 (≈ 32.5 µM) |
| 141 | > 26.2 | 2.05 | 6.29 (≈ 15.1 µM) | O=C(Nc1ccc(/C=C/C(=O)N2CCC=C(c3ccccc3)CC2)cn1)C1CCCC1 [compound 18] | 2.62 (≈ 6.31 µM) |
| 158 | 20.9 | 1.28 | 6.32 (≈ 16.2 µM) | CC(C)C(=O)Nc1ccc(/C=C/C(=O)N2CCC=C(c3ccccc3)CC2)cn1 [compound 19] | 8.52 (≈ 21.9 µM) |
| 152 | 11.8 | 0.934 | 6.69 (≈ 16 µM) | O=C(Nc1ccc(/C=C/C(=O)N2CCC=C(c3ccccc3)CC2)cn1)C1CCOC1 (stereo not shown) [compound 20] | 10 (≈ 24 µM) |
| 184 | 12.9 | 3.88 | 6.75 (≈ 21.1 µM) | Nc1ccc(/C=C/C(=O)N2CC=C(c3ccccc3)CCC2)cn1 [compound 21] | 4.78 (≈ 15 µM) |
| 159 | 12.1 | 1.08 | 11.6 (≈ 27.9 µM) | O=C(/C=C/c1ccc(NC(=O)C(F)(F)F)nc1)N1CCC=C(c2ccccc2)CC1 [compound 22] | 8.01 (≈ 19.3 µM) |
| 192 | 0.26 | ~0.933 | < 0.21 | COc1ccc(F)cc1C1=CCCN(C(=O)/C=C/c2cnc3c(c2)CNCC(=O)N3)CC1 [compound 31] | > 11 |
| 234 | 0.41 | 1.26 | 0.22 (≈ 0.503 µM) | COc1ccc(F)cc1C1=CCCN(C(=O)/C=C/c2cnc3c(c2)COCC(=O)N3)CC1 [compound 32] | 10.1 (≈ 23.2 µM) |
| 125 to 126 | 0.26 | 1.25 | 0.32 (≈ 0.783 µM) | CN1CC(=O)Nc2ncc(/C=C/C(=O)N3CCC=C(c4cccs4)CC3)cc2C1 [compound 33] | > 10.3 |
| 203.18 | 0.38 | 0.901 | 0.37 (≈ 0.952 µM) | O=C1CNCc2cc(/C=C/C(=O)N3CCC=C(c4ccccc4)CC3)cnc2N1 [compound 34] | > 9.76 |
| 218.22 | 0.54 | ~1.02 | 0.38 (≈ 0.897 µM) | COc1ccc(F)cc1C1=CCCN(C(=O)/C=C/c2cnc3c(c2)COC(=O)N3)CC1 [compound 35] | 6.56 (≈ 15.5 µM) |
| 244.33 | 0.67 | 0.986 | 0.6 (≈ 1.6 µM) | O=C1Nc2ncc(/C=C/C(=O)N3CCC=C(c4ccccc4)CC3)cc2CO1 [compound 41] | > 9.43 |
| 212 to 213 | 1.32 | 2.62 | 1.13 (≈ 2.77 µM) | CN1CC(=O)Nc2ncc(/C=C/C(=O)N3CC=C(c4cccs4)CCC3)cc2C1 [compound 43] | > 10.3 |
| 198 | 3.64 | ~2.81 | 4.8 (≈ 9.44 µM) | COc1ccc(CN2CC(=O)Nc3ncc(/C=C/C(=O)N4CCC=C(c5ccccc5)CC4)cc3C2)cc1 [compound 44] | > 12.8 |
| 227.76 | 0.53 | 0.562 | < 0.22 | O=C1Nc2ncc(/C=C/C(=O)N3CCC=C(c4ccccc4)CC3)cc2CN2CCOCC12 (stereo not shown) [compound 46] | > 11.2 |
| 208 | 0.44 | 0.783 | 0.25 (≈ 0.515 µM) | CC(=O)N1CCN2Cc3cc(/C=C/C(=O)N4CCC=C(c5ccccc5)CC4)cnc3NC(=O)C2C1 (stereo not shown) [compound 47] | 17.6 (≈ 36.3 µM) |
| 224.06 | 1.23 | 1.11 | 0.39 (≈ 0.847 µM) | O=C1Nc2ncc(/C=C/C(=O)N3CCC=C(c4ccccc4)CC3)cc2CN2CCSCC12 (stereo not shown) [compound 49] | 4.88 (≈ 10.6 µM) |
| 220 | 1.58 | 0.697 | 0.64 (≈ 1.44 µM) | O=C1Nc2ncc(/C=C/C(=O)N3CC=C(c4ccccc4)CCC3)cc2CN2CCOCC12 (stereo not shown) [compound 50] | 22 (≈ 49.5 µM) |
| 224 | 1.6 | 1.11 | 0.67 (≈ 1.45 µM) | O=C1Nc2ncc(/C=C/C(=O)N3CC=C(c4ccccc4)CCC3)cc2CN2CCSCC12 (stereo not shown) [compound 51] | 5.35 (≈ 11.6 µM) |
